The data set is described as follows: Anderson Cascade impaction analysis of dry powder blend in blister strip. As to conditions: 0.8% w/w drug in milled lactose blend, 13 mg per blister. The data set is classed as physicochemical. How it is done: A blend was prepared containing 0.8% w/w 6α,9α-difluoro-17α-[(2-furanylcarbonyl)oxy]-11β-hydroxy-16α-methyl-3-oxo-androsta-1,4-diene-17β-carbothioic acid S-fluoromethyl ester, prepared as particles according to the invention, and 99.2% w/w milled lactose (wherein the mean particle size is of the range 60-90 μm, and not greater than 15% of particles have a MMD of less than 15 μm).
The above composition was blended for 10 minutes at 600 rpm in a 2.5 litre bowl QMM Micromixer. A peelable blister strip containing 14 blisters, each filled with 13 mg of the powder formulation described above was prepared.
Anderson Cascade impaction analysis of this product was performed initially and after 1 month storage at 30° C. and 65% relative humidity as shown in Table 1 below.

Take `C[C@]12C[C@H](O)[C@@]3(F)C(C[C@H](F)C4=CC(=O)C=C[C@@]43C)C1C[C@](C)(OC(=O)c1ccco1)[C@@H]2C(=O)SCF` (some centres unmarked) [Micronised Drug, reference compound]: the “Respirable fraction (% of Total Emitted Dose)” value (1 month @ 30° C./65% Relative Humidity) was 25.1 % of Total Emitted Dose and the “Respirable fraction (% of Total Emitted Dose)” value (Initial) was 26.6 % of Total Emitted Dose.

For the origin of these results see patent US20120046258A1, “NOVEL CRYSTALLINE PHARMACEUTICAL PRODUCT” (GLAXO GROUP LIMITED, priority 2005, published 2012).
